The results in this text go back to publication PMC12822377, “Investigating the role of cytochrome bd oxidases in the antibacterial activity of madecassic acid and derivatives thereof” (RSC Medicinal Chemistry, 2026).

For assay [1], the target named is T1, cytochrome bd-I (Escherichia coli, UniProt P0ABJ9).
T1 construct: oxygen consumption activity of E. coli EC958 cytochrome bd-I-only membranes; endogenous in cells; host or cells: E. coli EC958 bd-I only strain (genotype ΔcyoA appCB::Cm), isolated membranes
Kind of assay: Oxygen consumption assay with isolated E. coli EC958 cytochrome bd-I only membranes. It counts as biochemical. As for the experimental part:
Membrane preparation and oxygen consumption were performed as described previously.[13] Briefly, cells were grown to exponential phase then harvested via centrifugation for 20 min at 4000 rpm and 4 °C. The cell pellet was resuspended in ice-cold sonication buffer (20 mM Tris/HCl at pH 7.4, 2 mM MgCl2, and 1 mM EGTA). The resuspended cells were sonicated (6 × 30s on ice at […]) before centrifugation at 44 000 rpm for 1 h and 4 °C to isolate membranes. The membrane pellet was resuspended in 20 mM Tris/HCl (pH 7.4) at a final concentration of 100 mg mL^−1 and stored at −20 °C. For oxygen measurements a Rank Brothers oxygen electrode with a 4 mL closed chamber was used at 37 °C, which contained 50 mM HEPES pH 7.4, 0.5 mg mL^−1 membranes (based on wet membranes) and DMSO-solubilised drug (added from 40× final concentration). A final concentration of 8 mM succinate (pH 7.4) was added (from 160 mM stock) to initiate the reaction with a single run lasting 15–20 min.

The test system of assay [2] is E. coli EC958 cytochrome bd-I only cells. The experiment in a line: Growth assay against E. coli cytochrome bd-I only cells. The settings on record: for IC50: Escherichia coli, read-out: IC50, growth inhibition, bd-I only E. coli cells, M9 minimal medium. It counts as cell-based, Escherichia coli. As for the experimental part:
(§1) EC958 is a multidrug-resistant E. coli O25: H4-ST131 isolate.[16,17] Generation of the EC958 bd-I only strain (genotype ΔcyoA appCB::Cm) is described elsewhere.[13]
(§2) Starter cultures were grown in 10 mL LB (E. coli) in sterile 50 mL conical flasks at 180 rpm and 37 °C until stationary phase was reached and were used to inoculate 50 mL of fresh growth medium in 250 mL conical flasks. M9 minimal medium was used for E. coli (16 g L^−1 Na2HPO4·2H2O, 3 g L^−1 KH2PO4, 0.5 g L^−1 NaCl, 1 g L^−1 NH4Cl, 0.24 g L^−1 MgSO4, 0.01 g L^−1 CaCl2, 0.1% casamino acids and 2% glycerol). Drug stocks were prepared in DMSO so that their final concentrations were 40× higher than the working concentrations. Greiner F-bottom sterile 96-well plates were prepared by adding 100 μL of a 2× concentrated growth medium, 61.7 μL sterile milliQ H2O, 5 μL of the drug and 33.3 μL of cell culture (final OD600 of ∼0.1). Cells were grown in a FLUOstar Omega plate reader at double orbital pattern setting.

For assay [3] the test system is unchanged. Kind of assay: microbe, parasite or virus in culture. It counts as cell-based, Escherichia coli. As for the experimental part: as §1
(§3) Viability assays were performed essentially as described previously.[13] Briefly, E. coli was grown overnight in 10 mL LB medium and was used to inoculate M9 medium. 20 μL of each drug was added to the wells of row A of a 96 well plate followed by 180 μL of cells (OD600 of 0.1). Cells were exposed to drug for 3 hours at 37 °C. Following drug exposure, serial dilutions were performed in 1 × phosphate buffered saline (pH 7.4) before being spotted onto LB agar plates overnight to determine changes in cell survival. Six repeats were performed for each concentration of drug which included two biological repeats and three technical repeats of each.

For assay [4], the system named is wild type E. coli EC958 cells. Kind of assay: Growth assay against wild type E. coli EC958 cells. The settings on record: wild type EC958 strain, aerobic conditions. The class given is cell-based, Escherichia coli. As for the experimental part:
as §2
(§4) Figure S1. Impact of madecassic acid upon E. coli growth and survival. (A) Growth assays of MA against wild type E. coli EC958 cells. Error bars represent standard deviations for at least 4 technical repeats, including two biological repeats. (B) Wild type E. coli EC958 cells were exposed to various concentrations of madecassic acid and bacterial survival was enumerated using serial dilution and viability plating. Error bars represent standard deviations for at least four technical repeats, including two […]
(§5) (1 picture or pasted object on this page, not shown here)

Assay [5] deals with wild type E. coli EC958 cells. Kind of assay: Survival assay against wild type E. coli EC958 cells. The class given is cell-based, Escherichia coli. The following applies: wild type EC958 strain. As for the experimental part:
as §3, §4, §5

For another assay, the target named is T2, succinate dehydrogenase (Escherichia coli, UniProt P07014+P0AC41+P0AC44+P69054).
T2 construct: endogenous in cells; host or cells: E. coli membranes; the main text says EcoM4 pSU2718G-cydABX-his6, the supplement says EC958
The experiment in a line: Succinate dehydrogenase assay in isolated E. coli membranes. The following applies: 1 mM. It counts as biochemical. The source says:
Investigating the role of cytochrome bd oxidases in the antibacterial activity of madecassic acid and derivatives thereof
Samantha A. Henry,a Geraud N. Sansom,a Thao Thi Phuong Tran,b Ryan A.
Boughton,a Guy Joiner,a Calum M. Webster,a H. Ireshika C. de Silva,c Michelle D.
Garrett,a Christopher J. Serpell,d Gary K. Robinson,a Mark Shepherd a a School of Natural Sciences, University of Kent, Canterbury, United Kingdom, CT2 7NH, UK b Institute of Chemistry, Vietnam Academy of Science and Technology, 18 Hoang Quoc Viet Road, Cau […]
c Department of Chemistry, University of Colombo, Colombo 03, Sri Lanka d School of Pharmacy, University College London, 29-39 Brunswick Square, London, WC1N 1AX, UK […]
Spectrakinetics were recorded on a Cary 60 spectrophotometer for 15 min and rates were calculated using the extinction coefficient A600 = 20.7 mM -1cm-1 (5) . […]
Isolated E. coli EC958 membranes were assayed for succinate dehydrogenase activity in the presence and absence of 1 mM madecassic acid (MA), and negative controls were recorded in the absence of membranes. […]

Assay [6] has as its target T1, cytochrome bd-I. Kind of assay: Oxygen electrode cytochrome bd-I assay with duroquinol as the electron source (EcoM4 pSU2718G-cydABX-his6 membranes). It counts as biochemical. The following applies: 1 mM, 400 µM duroquinol as electron donor. As for the experimental part:
Oxygen electrode cytochrome bd-I assays with duroquinol as the electron source Membranes from the E. coli EcoM4 pSU2718G-cydABX-his 6 strain were prepared as described previously(6). To specifically monitor cytochrome bd-I activity, duroquinol was used as a directly electron source. Duroquinol was prepared from duroquinone as previously described(7) and quantified using the extinction coefficient ΔA275(ox – red) = 16 mM-1cm-1 (8). Cytochrome bd-I activity was then monitored via oxygen consumption in a Rank Brothers oxygen electrode with a 2 mL closed chamber at 37 °C, which contained 50 mM HEPES pH 7.4, 0.5 mg/mL membranes (based on wet membranes) and DMSO-solubilised drug (added from 40x final concentration) or ‘DMSO only’ control. A final concentration of 400 µM duroquinol (in 50 mM KPi, 2mM EDTA pH 7.5) was added to initiate the reaction.
7. Rich P. Electron transfer reactions between quinols and quinones in aqueous and aprotic
8. Degli Esposti M, Lenaz G, Izzo G, Papa S. Kinetics and sidedness of ubiquinol-cytochrome c
Figure S3. […] Cytochrome bd-I activity was measured via monitoring oxygen consumption in an oxygen electrode in the presence and absence of 1 mM madecassic acid, and negative controls were recorded in the absence of membranes. […]

For orientation: IC50 means the concentration that gives 50% inhibition. Broadly, the LC50 is the concentration lethal to half of the exposed cells or organisms.

Molecules are shown by their SMILES.

T1 sequence (P0ABK2 whole entry): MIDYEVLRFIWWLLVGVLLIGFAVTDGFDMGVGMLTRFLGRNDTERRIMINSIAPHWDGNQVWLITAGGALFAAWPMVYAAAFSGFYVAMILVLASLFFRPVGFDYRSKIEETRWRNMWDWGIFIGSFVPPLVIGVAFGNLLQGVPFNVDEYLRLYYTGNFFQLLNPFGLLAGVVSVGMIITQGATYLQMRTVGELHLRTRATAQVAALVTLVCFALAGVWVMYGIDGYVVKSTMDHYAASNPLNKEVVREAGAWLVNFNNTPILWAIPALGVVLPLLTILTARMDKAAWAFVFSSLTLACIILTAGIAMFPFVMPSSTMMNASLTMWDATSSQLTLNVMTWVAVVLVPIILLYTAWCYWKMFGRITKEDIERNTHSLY
T1 sequence (A5A618 whole entry, further chain): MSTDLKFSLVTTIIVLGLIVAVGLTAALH
T1 sequence (P0ABJ9 whole entry): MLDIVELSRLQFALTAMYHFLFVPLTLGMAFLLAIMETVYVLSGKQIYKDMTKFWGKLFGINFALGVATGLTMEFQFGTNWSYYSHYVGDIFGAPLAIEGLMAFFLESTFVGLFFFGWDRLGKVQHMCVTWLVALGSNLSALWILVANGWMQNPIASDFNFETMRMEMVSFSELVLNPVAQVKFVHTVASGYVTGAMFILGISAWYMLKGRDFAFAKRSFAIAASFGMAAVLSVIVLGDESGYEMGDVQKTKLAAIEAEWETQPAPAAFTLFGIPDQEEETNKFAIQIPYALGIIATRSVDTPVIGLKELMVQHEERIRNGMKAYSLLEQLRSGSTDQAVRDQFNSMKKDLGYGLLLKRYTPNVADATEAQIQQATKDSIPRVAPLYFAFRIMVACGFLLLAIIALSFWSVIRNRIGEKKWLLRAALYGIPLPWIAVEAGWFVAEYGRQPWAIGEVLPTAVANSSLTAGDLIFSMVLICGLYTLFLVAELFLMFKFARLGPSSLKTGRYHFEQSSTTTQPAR
T1 sequence (P56100 whole entry, further chain): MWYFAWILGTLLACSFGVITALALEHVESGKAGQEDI
T2 sequence (P0AC41 whole entry): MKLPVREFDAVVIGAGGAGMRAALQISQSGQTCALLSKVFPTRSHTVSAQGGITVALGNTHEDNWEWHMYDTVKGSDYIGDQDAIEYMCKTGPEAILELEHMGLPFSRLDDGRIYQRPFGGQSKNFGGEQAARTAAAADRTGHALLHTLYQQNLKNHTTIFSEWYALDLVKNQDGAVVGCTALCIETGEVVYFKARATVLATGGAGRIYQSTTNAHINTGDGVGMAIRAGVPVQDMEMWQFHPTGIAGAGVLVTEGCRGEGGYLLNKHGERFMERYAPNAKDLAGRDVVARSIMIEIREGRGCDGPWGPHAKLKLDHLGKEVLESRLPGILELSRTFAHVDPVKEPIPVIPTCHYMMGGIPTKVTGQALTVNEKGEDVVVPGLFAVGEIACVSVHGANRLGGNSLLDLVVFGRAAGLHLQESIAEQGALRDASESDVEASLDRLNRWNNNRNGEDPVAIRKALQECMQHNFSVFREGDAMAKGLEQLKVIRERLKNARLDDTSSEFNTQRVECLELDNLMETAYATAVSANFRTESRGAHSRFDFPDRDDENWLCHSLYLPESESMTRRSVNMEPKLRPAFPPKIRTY
T2 sequence (P69054 whole entry): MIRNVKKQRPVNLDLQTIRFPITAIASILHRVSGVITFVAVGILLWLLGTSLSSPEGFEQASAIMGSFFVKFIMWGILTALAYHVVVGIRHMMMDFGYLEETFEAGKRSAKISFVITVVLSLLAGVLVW
T2 sequence (P07014 whole entry): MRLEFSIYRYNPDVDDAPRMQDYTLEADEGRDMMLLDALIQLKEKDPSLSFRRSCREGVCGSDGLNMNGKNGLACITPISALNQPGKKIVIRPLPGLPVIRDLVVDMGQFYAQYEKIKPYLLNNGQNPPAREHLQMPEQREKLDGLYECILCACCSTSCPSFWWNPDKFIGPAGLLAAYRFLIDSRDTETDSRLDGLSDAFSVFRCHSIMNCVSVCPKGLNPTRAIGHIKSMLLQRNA
T2 sequence (P0AC44 whole entry): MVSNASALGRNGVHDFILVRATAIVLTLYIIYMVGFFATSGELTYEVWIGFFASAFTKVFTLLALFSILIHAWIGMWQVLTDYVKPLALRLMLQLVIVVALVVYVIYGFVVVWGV

Turning to `C[C@H]1[C@H](C)CC[C@]2(C(=O)O)CC[C@]3(C)C(=CC[C@@H]4[C@@]5(C)C[C@@H](O)[C@H](O)[C@@](C)(CO)[C@@H]5[C@H](O)C[C@]43C)[C@H]12` [MA, Madecassic acid], the IC50 was 34 ± 11 µM at cytochrome bd-I [1]; 9.4 ± 1.5 µM in assay [2]; roughly 10 µM in assay [4] (Escherichia coli, read-out: IC50, growth inhibition). The “Max inhibition of growth” value in assay [2] (bd-I only E. coli cells) came out at 63%. Also, in assay [3] (bd-I only E. coli cells, 3 hours exposure at 37 °C), the “killing of cells (viability assay)” value is reported as “did not kill”. Also, in assay [4], the “maximal inhibition of growth” value worked out at 48%. In addition, the “susceptibility to killing (survival assay)” value in assay [5] was “not susceptible to MA-mediated killing at concentrations below 1 mM”. The “inhibition of SDH activity” value against succinate dehydrogenase is recorded as “did not inhibit SDH”. In addition, on cytochrome bd-I [6], the “effect on cytochrome bd-I activity (oxygen consumption)” value is listed as “completely abolishes bd-I activity”.

Turning to `CC(=O)OCC1(C)C(OC(C)=O)C(OC(C)=O)CC2(C)C1C(O)CC1(C)C2CC=C2C3C(C)C(C)CCC3(C(=O)O)CCC21C` (stereo not shown) [MA-2], the 50% inhibitory concentration (IC50) against cytochrome bd-I [1] came out at 15 ± 5 µM; in assay [2], 116 ± 22 µM.

`CC(=O)OCC1(C)C(OC(C)=O)C(OC(C)=O)CC2(C)C1C(O)CC1(C)C2CC=C2C3C(C)C(C)CCC3(C(=O)NCCCCCCCCCCN)CCC21C` (stereo not shown) [MA-3]: the IC50 on cytochrome bd-I [1] worked out at 10 ± 1 µM; in assay [2] it was 16 ± 11 µM.

On to `CC1CCC2(C(=O)NCCCCCCCCCCN)CCC3(C)C(=CCC4C5(C)CC(O)C(O)C(C)(CO)C5C(O)CC43C)C2C1C` (stereo not shown) [MA-4], for which the IC50 against cytochrome bd-I [1] was 79 ± 44 µM; in assay [2], greater than 250 µM. Moreover, in assay [3] (Escherichia coli, 3 h, read-out: LC50 (killing)), the LC50 was 304 ± 73 µM.
